“And” between values parts separate entries of the source, which are not always exact repeats. Equal entries are not always repeated.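 Interpolation was linear, between the two tested concentrations surrounding the appropriate level; five concentrations were tested over 48 hours in 96-well plates. GI50 marks 50% less growth. At the TGI there is no net growth.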
Tests used:
Assay in all cases: NCI tumour cell line growth inhibition, 48 h
DLD-1 colon = system: DLD-1 colon
DMS 273 small cell lung = system: DMS 273 small cell lung
HOP-18 NSCLC = system: HOP-18 NSCLC
KM20L2 colon = system: KM20L2 colon
RXF-631 renal = system: RXF-631 renal
SNB-78 CNS = system: SNB-78 CNS
XF 498 CNS = system: XF 498 CNS
M19-MEL melanoma = system: M19-MEL melanoma
DMS 114 small cell lung = system: DMS 114 small cell lung
P388 leukemia = system: P388 leukemia
P388/ADR leukemia = system: P388/ADR leukemia
SN12K1 renal = system: SN12K1 renal

Compound	TGI (DLD-1 colon)	TGI (DMS 273 small cell lung)	TGI (HOP-18 NSCLC)	TGI (KM20L2 colon)	TGI (RXF-631 renal)	TGI (SNB-78 CNS)	TGI (XF 498 CNS)	TGI (M19-MEL melanoma)	TGI (DMS 114 small cell lung)	GI50 (DMS 114 small cell lung)	GI50 (SNB-78 CNS)	GI50 (DLD-1 colon)	GI50 (DMS 273 small cell lung)	GI50 (HOP-18 NSCLC)	GI50 (KM20L2 colon)	GI50 (M19-MEL melanoma)	TGI (P388 leukemia)	TGI (P388/ADR leukemia)	TGI (SN12K1 renal)
Cc1ccc(/C=C/C(=O)c2ccc(Cl)c(Cl)c2)cc1	> 100 µM	> 100 µM	> 100 µM	> 100 µM	> 100 µM	> 100 µM	> 100 µM	–	–	–	–	–	–	–	–	–	–	–	–
Cc1cccc(-c2nnc3s/c(=C\c4ccc(N(C)C)cc4)c(=O)n23)c1	> 100 µM	> 100 µM	> 100 µM	> 100 µM	–	> 100 µM	> 100 µM	> 100 µM	–	–	–	–	–	–	–	–	–	–	–
CC(C)(C)C(=O)N1C(C(=O)O)Cc2ccccc2[C@@H]1Cc1ccccc1 (some centres not stated)	–	> 100 µM	> 100 µM	> 100 µM	> 100 µM	> 100 µM	> 100 µM	> 100 µM	> 100 µM	–	–	–	–	–	–	–	–	–	–
O=C1C2CCN(CC2)C1CN1CCOCC1 (configuration not stated)	3.18 µM	25.3 µM	15.8 µM	37 µM	31 µM	56.1 µM	14.5 µM	26.2 µM	–	–	–	–	–	–	–	–	–	–	–
CCCCCCCCCCCCSC(=S)c1c(C)[nH]n(-c2ccccc2)c1=O	> 50 µM	–	> 50 µM	39.5 µM	> 50 µM	> 50 µM	–	–	28.4 µM	–	–	–	–	–	–	–	–	–	–
Nc1nc(=O)n(C2CCC(CO)O2)cc1F (configuration not stated)	> 100 µM	> 100 µM	> 100 µM	> 100 µM	–	> 100 µM	–	–	> 100 µM	–	–	–	–	–	–	–	–	–	–
O=C(C[n+]1ccccc1)N/N=C(/CCC(=O)N(Cc1ccccc1)Cc1ccccc1)CC(=O)c1ccccc1	> 100 µM	> 100 µM	> 100 µM	> 100 µM	> 100 µM	> 100 µM	–	> 100 µM	> 100 µM	–	–	–	–	–	–	–	–	–	–
CSC(=O)C[C@@]12O[C@@H]([C@@H](C)C3CCC4[C@@H]5C(O)CC6=CC(=O)C=C[C@]6(C)C5CC[C@@]43C)C[C@](C)(O1)C(C)(C)O2 (some centres not stated)	–	35.9 µM	–	–	54.9 µM	37.6 µM	28.8 µM	8.4 µM	39.9 µM	–	–	–	–	–	–	–	–	–	–
COc1ccc(C(=O)C2CCC(C(=O)O)C2)cc1 (configuration not stated)	> 100 µM	> 100 µM	–	> 100 µM	–	> 100 µM	–	> 100 µM	> 100 µM	–	–	–	–	–	–	–	–	–	–
CCOC(=O)C12CCCC1(O)N(NC(=O)OC)C(C)=C2C(=O)OC (configuration not stated)	> 100 µM	> 100 µM	> 100 µM	> 100 µM	> 100 µM	> 100 µM	> 100 µM	> 100 µM	> 100 µM	–	–	–	–	–	–	–	–	–	–
COC(=O)CCC(=O)Nc1ccc(Cl)cc1C	> 100 µM	> 100 µM	> 100 µM	> 100 µM	> 100 µM	> 100 µM	> 100 µM	> 100 µM	> 100 µM	–	–	–	–	–	–	–	–	–	–
CN(C)c1ccc(/C=c2\sc3nnc(-c4ccco4)n3c2=O)cc1	> 100 µM	> 100 µM	> 100 µM	> 100 µM	> 100 µM	> 100 µM	> 100 µM	> 100 µM	> 100 µM	–	–	–	–	–	–	–	–	–	–
COc1ccc(/C=C/c2cc(OC)c(OC(C)=O)c(OC)c2)cc1	> 100 µM	> 100 µM	–	> 100 µM	> 100 µM	76.1 µM	> 100 µM	> 100 µM	84.7 µM	–	–	–	–	–	–	–	–	–	–
c1ccc(SC(Sc2ccccc2)=C2CCC2)cc1	> 100 µM	> 100 µM	–	> 100 µM	> 100 µM	> 100 µM	> 100 µM	> 100 µM	> 100 µM	–	–	–	–	–	–	–	–	–	–
O=C1c2ccccc2-c2c3c(cc4ccnc1c24)OCO3	24.7 µM and 27.3 µM	29.4 µM and 19.2 µM	> 100 µM	> 100 µM and 60.9 µM	–	66.1 µM and > 100 µM	21.1 µM and 22.1 µM	86.7 µM and 12.9 µM	> 100 µM and 32.4 µM	10.1 µM and 4.87 µM	14.9 µM and 6.03 µM	–	–	–	–	–	–	–	–
CC(Oc1ccc2c(-c3ccc(Cl)cc3)cc(=O)oc2c1)C(=O)O (configuration not stated)	> 100 µM	–	> 100 µM	> 100 µM	> 100 µM	> 100 µM	> 100 µM	–	–	–	–	–	–	–	–	–	–	–	–
CSC(=NC(=O)c1ccccc1Cl)SCCSC(=NC(=O)c1ccccc1Cl)SC	> 100 µM	> 100 µM	–	> 100 µM	–	> 100 µM	> 100 µM	> 100 µM	> 100 µM	–	–	–	–	–	–	–	–	–	–
CCN(CC)CCN(CC)CC.CCN(CC)CCN(CC)CC.[Cu+2].[Cu+2].[O-][Cl+3]([O-])([O-])[O-].[OH3+].[OH3+]	> 100 µM	> 100 µM	> 100 µM	61.4 µM	–	> 100 µM	–	53.7 µM	32.6 µM	16.6 µM	> 100 µM	51.9 µM	22 µM	> 100 µM	23.9 µM	24.2 µM	–	–	–
Cc1ccc(NCC2(/N=C/c3ccccc3)OC(CO)C(O)C2O)cc1 (configuration not stated)	> 100 µM	> 100 µM	–	49.4 µM	–	–	> 100 µM	–	> 100 µM	–	–	–	–	–	–	–	–	–	–
O=C(O)Cc1cccc2c(=O)cc(-c3ccccc3)oc12	> 250 µM	> 250 µM	250 µM	> 250 µM	–	> 250 µM	89.7 µM	> 250 µM	250 µM	–	–	–	–	–	–	–	250 µM	150 µM	> 250 µM
CCC[CH2][Sn](=[O])[CH2]CCC	> 50 µM	> 50 µM	> 50 µM	> 50 µM	–	> 50 µM	–	> 50 µM	> 50 µM	> 50 µM	> 50 µM	> 50 µM	> 50 µM	> 50 µM	> 50 µM	> 50 µM	–	–	–

From PubChem BioAssay (NCI)
